From patent US9115159B2, “Phosphate compounds, a process for their preparation and pharmaceutical compositions containing them” (LES LABORATOIRES SERVIER, priority 2013, dated 2015)
Like-named read-outs stand apart in the source and are kept apart here.

Key:
[1] = Solubility in aqueous medium buffered to physiological pH (phosphate 0.33M, pH 7.4); type: physicochemical; conditions: phosphate 0.33M, pH = 7.4
Procedure: The solubilities of the compounds were also measured in a medium buffered to physiological pH (cf. Table 3).

[2] = Pharmacokinetic profile / in vivo conversion after oral administration to SCID mice (plasma, LC-MS/MS); design: species or system female SCID mice; conditions: female, mouse, po; for Cmax: read-out: Cmax, compound measured: Drug from Example 1; for AUC(0-t): read-out: AUCt, compound measured: Drug from Example 1; for Tmax: read-out: Tmax, compound measured: Drug from Example 1
How it was run: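 Female SCID mice were gavaged with phosphate prodrug in EtOH/PEG300/water (10/40/50) at 3 or 25 mg/kg, or in aqueous media (1 mM Na2CO3, water, or 1M Na2CO3) at 3–100 mg/kg. Plasma prodrug and hydroxylated drug were measured by TFC-LC-MS/MS over 0.25–24 h. Non-compartmental analysis used mean concentrations.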

[3] = Drug from Example 1 administered 3 mg/kg p.o., lipid formulation
[4] = Drug from Example 1 administered 25 mg/kg p.o., lipid formulation
[5] = Drug from Example 1 administered 30 mg/kg p.o., lipid formulation
[6] = Drug from Example 1 administered 100 mg/kg p.o., lipid formulation

SMILES: O=C(c1cc(-c2cc3c(cc2C(=O)N2Cc4ccccc4C[C@H]2CN2CCOCC2)OCO3)n2c1CCCC2)N(c1ccccc1)c1ccc(O)cc1 [Drug from Example 1, N-(4-hydroxyphenyl)-3-{6-[((3S)-3-(4-morpholinylmethyl)-3,4-dihydro-2(1H)-isoquinolinyl)carbonyl]-1,3-benzodioxol-5-yl}-N-phenyl-5,6,7,8-tetrahydro-1-indolizine carboxamide]
- Solubility at 10 μM ([1]; 10 μM): Insoluble
- Solubility at 20 μM ([1]; 20 μM): Insoluble
- Solubility at 50 μM ([1]; 50 μM): Insoluble
- Solubility at 100 μM ([1]; 100 μM): Insoluble
- Cmax ([2]; Drug from Example 1 administered 3 mg/kg p.o., lipid formulation (ethanol/PEG 300/water 10/40/50)): 295 ng/mL
- AUC(0-t) [2, 3]: 225 ng·h/mL
- Tmax [2, 3]: 15 min
- AUC(0-t) [2, 4]: 20400 ng·h/mL
- Cmax [2, 4]: 5070 ng/mL
- Tmax [2, 4]: 120 min
- AUC(0-t) [2, 5]: 24200 ng·h/mL
- Cmax [2, 5]: 8580 ng/mL
- Tmax [2, 5]: 60 min
- AUC(0-t) [2, 6]: 148000 ng·h/mL
- Cmax [2, 6]: 25900 ng/mL
- Tmax [2, 6]: 30 min
